Source: patent US20240400572A1, “COMPOUNDS AND METHODS FOR TREATING CANCERS THAT ARE MGMT DEFICIENT REGARDLESS OF MMR STATUS” (Yale University, priority 2021, published 2024)
“Also recorded” adds a separate entry of the source.

Tests used:
BJ fibroblast cells = experiment: Short-term cell viability in normal fibroblasts; assay type: cell-based, human; details: KL-50 compared with TMZ
Protocol: Cell Culture. LN229 MGMT− and MGMT+ cell lines were a gift from B. Kaina (Johannes Gutenberg University Mainz, Mainz, Germany) and grown in DMEM with 10% FBS (Gibco). DLD1 BRCA2+/− and BRCA2−/− cell lines (Horizon Discovery, Cambridge, UK) were grown in RPMI 1640 with 10% FBS. HCT116 MLH1−/− and HCT116+Chr3 cell lines were a gift from T. Kunkel (National Institute of Environmental Health Sciences, Durham, NC) and grown in DMEM with 10% FBS, with […] G418 (Sigma) for HCT116+Chr3 cells. PD20 cell lines complemented with empty vector (+EV), wildtype FANCD2 (+FD2), or K561R ubiquitination-mutant FANCD2 (+KR) were a gift from G. Kupfer and P. Glazer (Yale University, New Haven, CT) and growth in DMEM with 10% FBS. PEO1 and PEO4 cell lines were a gift from T. Taniguchi (Fred Hutchinson Cancer Research Center, Seattle, WA) and were grown in DMEM with 10% FBS. BJ fibroblasts (normal human fibroblast cells) were purchased from ATCC (CRL-2522) and grown in DMEM with 10% FBS. […] All human cell lines were validated by short tandem repeat profiling (excluding BJ fibroblasts which were used within 6 passages of receiving from ATCC) and confirmed negative for mycoplasma by quantitative RT-PCR.
Short-term Cell Viability Assay. […] Cells were imaged on a Cytation 3 imaging reader (BioTek) and quantified using CellProfiler software.

[1] = system: genomic DNA of LN229 MGMT−/MMR+ cells; experiment: Genomic DNA denaturing gel electrophoresis; assay type: cell-based, human; details: 200 μM, 24 h
Protocol: Genomic DNA Denaturing Gel Electrophoresis. Cells were trypsinized, washed with 1×PBS, and stored at −80° C. prior to processing. Genomic DNA was extracted with the DNeasy Blood & Tissue Kit (Qiagen) per kit protocol. A 0.7% agarose gel was prepared in 100 mM NaCl-2 mM EDTA (pH 8) and soaked in 40 mM NaOH-1 mM EDTA running buffer for 2 h. Genomic DNA (400 ng/well) was then loaded in 1× BlueJuice loading buffer (Invitrogen) and subjected to electrophoresis at 2 V/cm for 30 min, followed by 3 V/cm for 2 h. The gel was neutralized in 150 mM NaCl-100 mM Tris (pH 7.4) for 30 min, twice, and then stained with 1× SYBR Gold in 150 mM NaCl-100 mM Tris (pH 7.4) for 90 min. Imaging was performed on a ChemiDoc XRS+ Molecular Imager (Bio-Rad).

[2] = system: linearized pUC19 plasmid DNA; experiment: In vitro DNA cross-linking assay; assay type: biochemical; details: 100 μM, 6-36 hours
Protocol: Plasmid Linearization Assay. To set up the linearization reactions, 20 units of EcoRI-HF (New England Biolabs) was mixed with 20 μg 2686 bp pUC19 vector DNA in CutSmart buffer (New England Biolabs), pH 7.9, in a total volume of 1000 μL for 30 min at 37° C. The CutSmart buffer contains 50 mM potassium acetate, 20 mM Tris acetate, 10 mM magnesium acetate, and 100 μg/mL BSA. The reacted DNA was then purified using PCR cleanup kit and quantified using the NanoDrop One (Thermo Fisher). The DNA was then stored at −20° C. before use in in vitro DNA cross-linking assays or melting temperature analysis.
In Vitro DNA Cross-linking Assays. Linearized pUC19 DNA, prepared as described above, was used for in vitro DNA cross-linking assays. For each condition, 200 ng of linearized pUC19 DNA (15.4 μM base pairs) was incubated with the indicated concentration of drug in 20 μL. Drug stock concentrations were made in DMSO such that each reaction contained a fixed 5% DMSO concentration. Reactions were conducted in 100 mM Tris buffer (pH 7.4). Cisplatin (Sigma) and DMSO vehicle were used as positive and negative controls, respectively. Reactions were conducted between 3-96 h at 37° C. The DNA was stored at −80° C. until electrophoretic analysis. For gel electrophoresis, DNA concentration was preadjusted to 10 ng/μL. […]

[3] = system: LN229 MGMT+/−, MMR+/− isogenic lines; experiment: Short-term cell viability assay with ROS scavenger NAC; assay type: cell-based, human; details: pre-treated with increasing concentrations of NAC
Protocol: FIGS. ZS5A-ZS5D. […] Columns, mean; error bars, SD; n=2 independent analyses. For (FIG. ZS5A) and (FIG. ZS5C), points, mean; error bars, SD; n=3 technical replicates.
Short-term Cell Viability Assay. Cells were seeded in 96-well plates at 1000 or 2000 cells/well and allowed to adhere at 23° C. for 60 min and then incubated overnight at 37° C. Cells were treated with indicated concentrations of compounds in triplicate for 4-6 days prior to fixation with 3.7% paraformaldehyde and nuclear staining with 1 μg/mL Hoechst 33342 dye. Cells were imaged on a Cytation 3 imaging reader (BioTek) and quantified using CellProfiler software.

[4] = system: LN229 MGMT+/−, MMR+/− cells; experiment: Micronuclei analysis; assay type: cell-based, human; details: 20 μM, 48 h
From the text: Micronuclei Analysis. An automated image analysis pipeline was developed by YCMD using InCell Analyzer software to quantify micronuclei formation. Nuclei and micronuclei were segmented based on Hoechst nucleic acid dye staining channel. A perinuclear margin was applied around the nuclei to approximate the extent of the cytoplasm and identify micronuclei associated with the parent nucleus. Cells with nuclei associated with at least 1 micronucleus were considered positive.

[5] = system: LN229 MGMT−/MMR− intracranial tumors; experiment: Intracranial tumor study; assay type: in vivo, mouse; details: 25 mg/kg IP M-F×1 week as printed

Compound | cytotoxicity in normal human fibroblast cells (in words) (BJ fibroblast cells) | crosslinked genomic DNA (in words) [1] | ICLs in plasmid DNA (in words) [2] | rescue of toxicity by NAC (in words) [3] | micronuclei formation (in words) [4] | intracranial tumor growth by BLI (in words) [5]
NC(=O)c1ncn2c(=O)n(CCF)nnc12 [KL-50, 3-(2-fluoroethyl)-4-oxo-3H,4H-imidazo[4,3-d][1,2,3,5]tetrazine-8-carboxamide] | no increase in toxicity | presence of crosslinked DNA | possessed ICLs, with delayed rates of formation relative to 12b | did not result in rescue | significant increase in micronuclei was observed at 48 h | effective
Cn1nnc2c(C(N)=O)ncn2c1=O [TMZ, temozolomide, reference compound] |  | no evidence of ICL induction |  |  | smaller increases in G1-phase foci and micronuclei formation at 48 h in MGMT−/MMR+ cells; also recorded: did not observe foci induction or micronuclei formation in MGMT−/MMR− cells | only transiently suppressed tumor growth
